Test results reported in ChEMBL document CHEMBL1146917, “Discovery and structure-activity relationship of 2-phenyl-oxazole-4-carboxamide derivatives as potent apoptosis inducers” (Bioorg Med Chem Lett, 2006).
Values after ≈ are worked out from the molar mass of the structure shown. Active and inactive are the calls of the source. The rule behind the calls is not given here.

Experiments:
DLD-1 [1] = assay: Induction of apoptosis in human DLD1 cells assessed as activation of caspases by HTS assay; assay type: functional, cell-based
DLD-1 [2] = assay: Growth inhibition of human DLD1 cells; assay type: functional
[3] = Solubility of the compound; assay type: physicochemical
DLD-1 [4] = assay: Activity against caspase-mediated PARP cleavage in human DLD1 cells at 1 uM after 48 hrs by Western blot analysis; assay type: functional, cell-based
DLD-1 [5] = assay: Activity against DNA laddering in DLD1 cells at 1 uM after 48 hrs; assay type: functional, cell-based; conditions: Homo sapiens
DLD-1 [6] = assay: Inhibition of tumor growth in BALB/c nude mouse implanted with DLD1 cells at 50 mg/kg, ip, qd; assay type: functional; conditions: DLD-1, ip
DLD-1 [7] = assay: Inhibition of tumor growth in BALB/c nude mouse implanted with DLD1 cells at 100 mg/kg, ip, qd; assay type: functional; conditions: DLD-1, ip
DLD-1 [8] = assay: Inhibition of tumor growth in BALB/c nude mouse implanted with DLD1 cells at 50 mg/kg, ip, bid; assay type: functional; conditions: DLD-1, ip

SMILES | EC50 (DLD-1 [1]) | other results
O=C(Cc1ccccc1)NCc1ccc(-c2nc(C(=O)N3CC=CCC3)co2)cc1 | 0.108 µM | –
O=C(Cc1ccccc1)NCc1ccc(-c2nc(C(=O)N3CCCC(F)(F)C3)co2)cc1 | 0.02 µM | GI50 (DLD-1 [2]): 0.015 µM; solubility [3]: < 10 µM
COC1CCCN(C(=O)c2coc(-c3ccc(CNC(=O)Cc4ccccc4)cc3)n2)C1 (stereo unspecified) | 0.259 µM | –
O=C1CCCN(C(=O)c2coc(-c3ccc(CNC(=O)Cc4ccccc4)cc3)n2)C1 | 0.235 µM | –
O=C(Cc1ccccc1)NCc1ccc(-c2nc(C(=O)N3CCCCCCC3)co2)cc1 | 0.108 µM | –
O=C(Cc1ccccc1)NCc1ccc(-c2nc(C(=O)N3CCCC3)co2)cc1 | 0.553 µM | –
O=C(Cc1cccc(F)c1)NCc1ccc(-c2nc(C(=O)N3CCCCC3)co2)cc1 | 0.072 µM | –
O=C(Cc1ccccc1)NCc1ccc(-c2nc(C(=O)N3CCCC(F)C3)co2)cc1 (stereo unspecified) | 0.085 µM | –
O=C1CCN(C(=O)c2coc(-c3ccc(CNC(=O)Cc4ccccc4)cc3)n2)CC1 | 0.115 µM | –
O=C(Cc1ccccc1)NCc1ccc(-c2nc(C(=O)N3CCC(F)CC3)co2)cc1 | 0.304 µM | –
O=C(Cc1ccc(O)cc1)NCc1ccc(-c2nc(C(=O)N3CCCCC3)co2)cc1 | 0.073 µM | –
O=C(Cc1cccs1)NCc1ccc(-c2nc(C(=O)N3CCCCC3)co2)cc1 | 0.059 µM | GI50 (DLD-1 [2]): 0.075 µM; solubility [3]: 29 µM (≈ 11.9 µg/mL)
O=C(Cc1ccccc1)NCc1ccc(-c2nc(C(=O)N3CCC(O)CC3)co2)cc1 | 0.15 µM | –
O=C(Cc1ccc(Cl)cc1)NCc1ccc(-c2nc(C(=O)N3CCCCC3)co2)cc1 | 0.274 µM | –
O=C(Cc1ccccc1)NCc1ccc(-c2nc(C(=O)N3CCCCCC3)co2)cc1 | 0.033 µM | –
Cc1ccc(CC(=O)NCc2ccc(-c3nc(C(=O)N4CCCCC4)co3)cc2)cc1 | 0.142 µM | –
O=C(Cc1ccccc1)NCc1ccc(-c2nc(C(=O)N3CCC(Cl)CC3)co2)cc1 | 0.492 µM | –

SMILES | EC50 (DLD-1 [1]) | other results
COC1CCN(C(=O)c2coc(-c3ccc(CNC(=O)Cc4ccccc4)cc3)n2)CC1 | 5.23 µM | –
O=C(Cc1ccccc1O)NCc1ccc(-c2nc(C(=O)N3CCCCC3)co2)cc1 | 1.01 µM | –
O=C(Cc1ccccc1)NCc1ccc(-c2nc(C(=O)N3CCCC(O)C3)co2)cc1 (stereo unspecified) | 0.196 µM | –
O=C(Cc1ccccc1)NCc1ccc(-c2nc(C(=O)N3CCC(CO)CC3)co2)cc1 | 0.196 µM | –
O=C(Cc1ccc(OC(F)(F)F)cc1)NCc1ccc(-c2nc(C(=O)N3CCCCC3)co2)cc1 | 0.27 µM | GI50 (DLD-1 [2]): 0.229 µM; solubility [3]: 44 µM (≈ 21.4 µg/mL); Activity (DLD-1 [4]): Active; Activity (DLD-1 [5]): Active; inhibition in vivo at 50 mg/kg (DLD-1 [6]): 21%; inhibition in vivo at 100 mg/kg (DLD-1 [7]): 38%; inhibition in vivo at 50 mg/kg (DLD-1 [8]): 63%
CC1CCCN(C(=O)c2coc(-c3ccc(CNC(=O)Cc4ccccc4)cc3)n2)C1 (stereo unspecified) | 0.193 µM | –
O=C(Cc1ccccc1)NCc1ccc(-c2nc(C(=O)N3CCC(F)(F)CC3)co2)cc1 | 0.979 µM | –
O=C(Cc1ccccc1)NCc1ccc(-c2nc(C(=O)N3CC4CC4C3)co2)cc1 (stereo unspecified) | 0.318 µM | –
O=C(Cc1ccccc1F)NCc1ccc(-c2nc(C(=O)N3CCCCC3)co2)cc1 | 0.065 µM | –
C[C@@H]1CC[C@H](C)N1C(=O)c1coc(-c2ccc(CNC(=O)Cc3ccccc3)cc2)n1 | 0.034 µM | –
O=C(Cc1ccccc1)NCc1ccc(-c2nc(C(=O)N3CCCCC3)co2)cc1 | 0.065 µM | GI50 (DLD-1 [2]): 0.258 µM; solubility [3]: 47 µM (≈ 19 µg/mL)
O=C(Cc1cccc(O)c1)NCc1ccc(-c2nc(C(=O)N3CCCCC3)co2)cc1 | 0.139 µM | –
O=C(Cc1cccc(Cl)c1)NCc1ccc(-c2nc(C(=O)N3CCCCC3)co2)cc1 | 0.533 µM | –
O=C(Cc1ccccc1)NCc1ccc(-c2nc(C(=O)N3CCCC(Cl)C3)co2)cc1 (stereo unspecified) | 0.119 µM | –
O=C(Cc1ccc(F)cc1)NCc1ccc(-c2nc(C(=O)N3CCCCC3)co2)cc1 | 0.233 µM | –
CC1CCN(C(=O)c2coc(-c3ccc(CNC(=O)Cc4ccccc4)cc3)n2)CC1 | 0.258 µM | –
